Patent US6197535A, “Methods for purifying and assaying a conus γ-carboxylase” (University of Utah Research Foundation, priority 1999, dated 2001)

System: Conus γ-glutamyl carboxylase (Conus radiatus venom duct microsomes)
Assay type: biochemical
Details: for Km: read-out: apparent Km

Row | Substance | Km [µM] | enhancement of carboxylation of E.Con-G | enhancement of carboxylation of FLEEL [%] | inhibition of carboxylation of -10.Pro-E.Con-G | IC50 (read-out: apparent IC50) [µM]
1 | GKDRLTQMKRILKQRGNKAR-GEEELY-NH2 [wild type substrate] | 40 | – | – | – | –
2 | GEEELQENQELIREKSN-NH2 [E.Con-G] | 3400 | – | – | – | –
3 | GKDRLTQMKRILKQRGNKAR [Pro (-20 to -1)] | – | ~ 25% | 40 | is an inhibitor | 490
